Like-named read-outs stand apart in the source and are kept apart here.
Molecular target: human transferrin receptor (hTfR) (Homo sapiens, UniProt P02786)
Assay: SPR measurement of peptide binding to hTfR
From the text: Note that ND indicates No Data (here, it means that no data was obtained).

[1] = measured on the naked peptide (1st to 15th amino acids, without linker) corresponding to the listed linker-attached peptide, read-out: KD value of binding to hTfR by SPR
[2] = naked peptide (1st to 15th amino acids, without linker part) corresponding to the listed linker-attached peptide, read-out: SPR of naked peptide (KD for binding to hTfR)

human transferrin receptor (hTfR), sequence (P02786 whole entry): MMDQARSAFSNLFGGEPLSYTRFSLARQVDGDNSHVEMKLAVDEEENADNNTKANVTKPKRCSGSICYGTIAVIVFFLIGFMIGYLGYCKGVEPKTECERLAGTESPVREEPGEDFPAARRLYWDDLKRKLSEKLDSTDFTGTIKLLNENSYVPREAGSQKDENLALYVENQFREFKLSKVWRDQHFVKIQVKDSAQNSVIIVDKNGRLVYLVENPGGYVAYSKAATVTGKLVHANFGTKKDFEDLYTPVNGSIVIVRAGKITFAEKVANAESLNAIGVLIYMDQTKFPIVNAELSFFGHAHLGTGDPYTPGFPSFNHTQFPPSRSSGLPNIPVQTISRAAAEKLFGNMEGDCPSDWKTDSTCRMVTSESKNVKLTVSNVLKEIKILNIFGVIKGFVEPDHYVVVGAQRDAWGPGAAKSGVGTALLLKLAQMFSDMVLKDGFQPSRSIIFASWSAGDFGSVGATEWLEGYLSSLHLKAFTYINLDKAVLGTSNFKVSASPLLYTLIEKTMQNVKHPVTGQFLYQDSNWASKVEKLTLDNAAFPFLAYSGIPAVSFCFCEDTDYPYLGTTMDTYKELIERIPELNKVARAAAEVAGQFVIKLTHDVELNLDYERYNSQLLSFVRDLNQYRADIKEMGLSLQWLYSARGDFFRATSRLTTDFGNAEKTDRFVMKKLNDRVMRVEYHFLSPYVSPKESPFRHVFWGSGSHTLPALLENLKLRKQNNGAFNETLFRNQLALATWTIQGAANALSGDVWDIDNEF

Row | SMILES | Kd [1] [nM] | Kd [2] [nM] | other results
1 | CC[C@H](C)[C@@H]1NC(=O)[C@H](Cc2ccc(O)cc2)NC(=O)[C@H](Cc2ccc(O)cc2)NC(=O)[C@H](CC(N)=O)NC(=O)[C@H](Cc2c[nH]c3ccccc23)NC(=O)[C@H](C(C)C)NC(=O)[C@H](Cc2ccccc2)NC(=O)[C@H](C(C)C)NC(=O)[C@H](C)NC(=O)CSC[C@@H](C(=O)NCCOCCOCCOCCOCCC(=O)NN)NC(=O)[C@H](Cc2ccc(O)cc2)N(C)C(=O)[C@H](Cc2ccc(O)cc2)NC(=O)[C@H](CCCNC(=N)N)NC(=O)[C@H](CCCNC(=N)N)NC(=O)[C@H]([C@@H](C)CC)NC1=O [hTIR 000894_PEG4_(Hydrazide)] |  | < 1 | 
2 | CC[C@H](C)[C@@H]1NC(=O)[C@H](Cc2ccc(O)cc2)NC(=O)[C@H](Cc2ccc(O)cc2)NC(=O)[C@H](CC(N)=O)NC(=O)[C@H](Cc2c[nH]c3ccccc23)N(C)C(=O)[C@H](C(C)C)NC(=O)[C@H](Cc2ccccc2)NC(=O)[C@H](C(C)C)NC(=O)[C@H](C)NC(=O)CSC[C@@H](C(=O)NCCOCCOCCOCCOCCOCCOCCOCCOCCC(=O)N[C@@H](CCCCNC(=O)C2CCC(CN3C(=O)C=CC3=O)CC2)C(N)=O)NC(=O)[C@H](Cc2ccc(O)cc2)N(C)C(=O)[C@H](Cc2ccc(O)cc2)NC(=O)[C@H](CCCNC(=N)N)NC(=O)[C@H](CCCNC(=N)N)NC(=O)[C@H]([C@@H](C)CC)NC1=O (stereo partly drawn) [894_5m_PEG08_K(Mal)] |  | < 1 | 
3 | CC[C@H](C)[C@@H]1NC(=O)[C@H](Cc2ccc(O)cc2)NC(=O)[C@H](Cc2ccc(O)cc2)NC(=O)[C@H](CC(N)=O)NC(=O)[C@H](Cc2c[nH]c3ccccc23)NC(=O)[C@H](C(C)C)NC(=O)[C@H](Cc2ccccc2)N(C)C(=O)[C@H](C(C)C)NC(=O)[C@H](C)NC(=O)CSC[C@@H](C(=O)NCC(=O)NCC(=O)NCC(=O)NCC(=O)N[C@@H](CO)C(=O)N[C@@H](CO)C(=O)N[C@@H](CCCCNC(=O)C2CCC(CN3C(=O)C=CC3=O)CC2)C(N)=O)NC(=O)[C@H](Cc2ccc(O)cc2)N(C)C(=O)[C@H](Cc2ccc(O)cc2)NC(=O)[C@H](CCCNC(=N)N)NC(=O)[C@H](CCCNC(=N)N)NC(=O)[C@H]([C@@H](C)CC)NC1=O (stereo partly drawn) [894_3m_G4S2_K(Mal)] |  |  | Kd: 1 to 100 nM
4 | CC[C@H](C)[C@@H]1NC(=O)[C@H](Cc2ccc(O)cc2)NC(=O)[C@H](Cc2ccc(O)cc2)NC(=O)[C@H](CC(N)=O)NC(=O)[C@H](Cc2c[nH]c3ccccc23)NC(=O)[C@H](C(C)C)NC(=O)[C@H](Cc2ccccc2)N(C)C(=O)[C@H](C(C)C)NC(=O)[C@H](C)NC(=O)CSC[C@@H](C(=O)NCC(=O)NCC(=O)N[C@@H](CCCNC(=N)N)C(=O)NCC(=O)N[C@@H](CCCNC(=N)N)C(=O)N[C@@H](CO)C(=O)N[C@@H](CCCCNC(=O)C2CCC(CN3C(=O)C=CC3=O)CC2)C(N)=O)NC(=O)[C@H](Cc2ccc(O)cc2)N(C)C(=O)[C@H](Cc2ccc(O)cc2)NC(=O)[C@H](CCCNC(=N)N)NC(=O)[C@H](CCCNC(=N)N)NC(=O)[C@H]([C@@H](C)CC)NC1=O (stereo partly drawn) [894_3m_GGRGRS_K(Mal)] | 1 to 100 |  | 
5 | CC[C@H](C)[C@@H]1NC(=O)[C@H](Cc2ccc(O)cc2)NC(=O)[C@H](Cc2ccc(O)cc2)NC(=O)[C@H](CC(N)=O)NC(=O)[C@H](Cc2c[nH]c3ccccc23)NC(=O)[C@H](C(C)C)NC(=O)[C@H](Cc2ccccc2)NC(=O)[C@H](C(C)C)NC(=O)[C@H](C)NC(=O)CSC[C@@H](C(=O)NCCOCCOCCOCCOCCOCCOCCOCCOCCOCCOCCOCCOCCOCCOCCOCCOCCOCCOCCOCCOCCOCCOCCOCCOCCOCCOCCOCCOCCOCCOCCOCCOCCOCCOCCOCCOCCC(=O)ON2C(=O)CCC2=O)NC(=O)[C@H](Cc2ccc(O)cc2)N(C)C(=O)[C@H](Cc2ccc(O)cc2)NC(=O)[C@H](CCCNC(=N)N)NC(=O)[C@H](CCCNC(=N)N)NC(=O)[C@H]([C@@H](C)CC)NC1=O [JCR_hTfR_000894_PEG36_(NHS)] |  | < 1 | 

The next lines start with results.

Row | Kd [1] [nM] | Kd [2] [nM] | SMILES | other results
6 | < 1 |  | CC[C@H](C)[C@@H]1NC(=O)[C@H](Cc2ccc(O)cc2)NC(=O)[C@H](Cc2ccc(O)cc2)NC(=O)[C@H](CC(N)=O)NC(=O)[C@H](Cc2c[nH]c3ccccc23)N(C)C(=O)[C@H](C(C)C)NC(=O)[C@H](Cc2ccccc2)NC(=O)[C@H](C(C)C)NC(=O)[C@H](C)NC(=O)CSC[C@@H](C(=O)NCC(=O)NCC(=O)N[C@@H](CCC(=O)O)C(=O)N[C@@H](CO)C(=O)N[C@@H](CCC(=O)O)C(=O)N[C@@H](CO)C(=O)N[C@@H](CCCCNC(=O)C2CCC(CN3C(=O)C=CC3=O)CC2)C(N)=O)NC(=O)[C@H](Cc2ccc(O)cc2)N(C)C(=O)[C@H](Cc2ccc(O)cc2)NC(=O)[C@H](CCCNC(=N)N)NC(=O)[C@H](CCCNC(=N)N)NC(=O)[C@H]([C@@H](C)CC)NC1=O (stereo partly drawn) [894_5m_GGESES_K(Mal)] | 
7 | < 1 |  | CC[C@H](C)[C@@H]1NC(=O)[C@H](Cc2ccc(O)cc2)NC(=O)[C@H](Cc2ccc(O)cc2)NC(=O)[C@H](CC(N)=O)NC(=O)[C@H](Cc2c[nH]c3ccccc23)N(C)C(=O)[C@H](C(C)C)NC(=O)[C@H](Cc2ccccc2)NC(=O)[C@H](C(C)C)NC(=O)[C@H](C)NC(=O)CSC[C@@H](C(=O)NCC(=O)NCC(=O)N[C@@H](CO)C(=O)NCC(=O)N[C@@H](CCC(=O)O)C(=O)N[C@@H](CO)C(=O)N[C@@H](CCCCNC(=O)C2CCC(CN3C(=O)C=CC3=O)CC2)C(N)=O)NC(=O)[C@H](Cc2ccc(O)cc2)N(C)C(=O)[C@H](Cc2ccc(O)cc2)NC(=O)[C@H](CCCNC(=N)N)NC(=O)[C@H](CCCNC(=N)N)NC(=O)[C@H]([C@@H](C)CC)NC1=O (stereo partly drawn) [894_5m_GGSGES_K(Mal)] | 
8 | < 1 |  | CC[C@H](C)[C@@H]1NC(=O)[C@H](Cc2ccc(O)cc2)NC(=O)[C@H](Cc2ccc(O)cc2)NC(=O)[C@H](CC(N)=O)NC(=O)[C@H](Cc2c[nH]c3ccccc23)N(C)C(=O)[C@H](C(C)C)NC(=O)[C@H](Cc2ccccc2)NC(=O)[C@H](C(C)C)NC(=O)[C@H](C)NC(=O)CSC[C@@H](C(=O)NCC(=O)N[C@@H](CO)C(=O)N[C@@H](CO)C(=O)NCC(=O)N[C@@H](CO)C(=O)N[C@@H](CO)C(=O)N[C@@H](CCCCNC(=O)C2CCC(CN3C(=O)C=CC3=O)CC2)C(N)=O)NC(=O)[C@H](Cc2ccc(O)cc2)N(C)C(=O)[C@H](Cc2ccc(O)cc2)NC(=O)[C@H](CCCNC(=N)N)NC(=O)[C@H](CCCNC(=N)N)NC(=O)[C@H]([C@@H](C)CC)NC1=O (stereo partly drawn) [894_5m_GSSGSS_K(Mal)] | 
9 | < 1 |  | CC[C@H](C)[C@@H]1NC(=O)[C@H](Cc2ccc(O)cc2)NC(=O)[C@H](Cc2ccc(O)cc2)NC(=O)[C@H](CC(N)=O)NC(=O)[C@H](Cc2c[nH]c3ccccc23)N(C)C(=O)[C@H](C(C)C)NC(=O)[C@H](Cc2ccccc2)NC(=O)[C@H](C(C)C)NC(=O)[C@H](C)NC(=O)CSC[C@@H](C(=O)NCC(=O)NCC(=O)N[C@@H](CCCNC(=N)N)C(=O)N[C@@H](CO)C(=O)N[C@@H](CCC(=O)O)C(=O)N[C@@H](CO)C(=O)N[C@@H](CCCCNC(=O)C2CCC(CN3C(=O)C=CC3=O)CC2)C(N)=O)NC(=O)[C@H](Cc2ccc(O)cc2)N(C)C(=O)[C@H](Cc2ccc(O)cc2)NC(=O)[C@H](CCCNC(=N)N)NC(=O)[C@H](CCCNC(=N)N)NC(=O)[C@H]([C@@H](C)CC)NC1=O (stereo partly drawn) [894_5m_GGRSES_K(Mal)] | 

Source: patent US20240366775A1, “HUMAN TRANSFERRIN RECEPTOR BINDING ANTIBODY-PEPTIDE CONJUGATE” (PEPTIDREAM INC., priority 2021, published 2024)
